Experimental data published in the supplement of paper PMC11061612.

Legend:
[1] = tested on: IM-95 (Gastric Carcinoma); test: Bliss excess, mean over the matrix (fraction); higher = more synergy;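 also: after 72 h of two-drug dosing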
Method in brief: (§1)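 Cell lines in DMEM/F12 or RPMI with 10% FBS were plated in 1536-well plates, held 24 hours at 37°C, 5% CO2, then given two-drug dose matrices for 72 hours (DMSO typically 0.2%). Viability was read by CellTiter-Glo 2.0 luminescence and scaled as inhibition from 0 (vehicle wells) to 1 (blank wells). Combination Emax is the second-highest inhibition in the matrix; Bliss excess is observed combination effect minus expected EA + EB − EA·EB, EA and EB being single-agent effects.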

[2] = tested on: SK-GT-4 (Esophageal Adenocarcinoma); test: combination Emax (second highest fraction inhibited in the dose matrix, 72 h); higher = more inhibition; extreme values may be limits of the assay
Method in brief: as §1

[3] = tested on: T-T (Esophageal Squamous Cell Carcinoma); test: as above
Method in brief: as §1

[4] = tested on: CW-2 (Colorectal Carcinoma); test: as above
Method in brief: as §1

[5] = tested on: SNU-398 (Hepatocellular Carcinoma); test: as above
Method in brief: as §1

[6] = tested on: NCI-H661 (Non-Small Cell Lung Carcinoma); test: as above
Method in brief: as §1

[7] = tested on: COR-L279 (Small Cell Lung Carcinoma); test: as above
Method in brief: as §1

[8] = tested on: NCI-H3122 (Lung Adenocarcinoma); test: as above
Method in brief: as §1

[9] = tested on: DAN-G (Pancreatic Carcinoma); test: as above
Method in brief: as §1

[10] = tested on: SU-DHL-5 (B-Cell Non-Hodgkin's Lymphoma); test: as above
Method in brief: as §1

[11] = tested on: DMS-114 (Small Cell Lung Carcinoma); test: as above
Method in brief: as §1

[12] = tested on: RD (Rhabdomyosarcoma); test: as above
Method in brief: as §1

[13] = tested on: SK-GT-2 (Gastric Carcinoma); test: as above
Method in brief: as §1

[14] = tested on: M059J (Glioblastoma); test: as above
Method in brief: as §1

[15] = tested on: NCI-H2731 (Mesothelioma); test: as above
Method in brief: as §1

[16] = tested on: HCC1187 (Breast Carcinoma); test: as above
Method in brief: as §1

[17] = tested on: ESO51 (Esophageal Adenocarcinoma); test: as above
Method in brief: as §1

[18] = tested on: VMRC-RCZ (Kidney Carcinoma); test: as above
Method in brief: as §1

[19] = tested on: KYSE-270 (Esophageal Squamous Cell Carcinoma); test: as above
Method in brief: as §1

[20] = tested on: MN-60 (B-Lymphoblastic Leukemia); test: as above
Method in brief: as §1

SMILES	Bliss excess [1]	combination Emax [2]	combination Emax [3]	combination Emax [4]	combination Emax [5]	combination Emax [6]	combination Emax [7]	combination Emax [8]	combination Emax [9]	combination Emax [10]	combination Emax [11]	combination Emax [12]	combination Emax [13]	combination Emax [14]	combination Emax [15]	combination Emax [16]	combination Emax [17]	combination Emax [18]	combination Emax [19]	combination Emax [20]
C=CCn1c(=O)c2cnc(Nc3ccc(N4CCN(C)CC4)cc3)nc2n1-c1cccc(C(C)(C)O)n1 [AZD1775] + O=C(c1cc(Cc2n[nH]c(=O)c3ccccc23)ccc1F)N1CCN(C(=O)C2CC2)CC1 [Olaparib] (first compound max 1 µM, partner max 10 µM)	-0.0047	0.363	0.455	0.392	0.5	0.512	0.858	0.736	0.646	1	0.363	0.461	0.82	0.618	0.349	0.423	0.455	0.339	0.7	0.366
COc1nnc2ccc(N3CCC(c4ccc(OCCN5CCN(C)C(=O)[C@H]5C)cc4)CC3)nn12 [AZD5153] + CN(CC[C@H](CSC1=CC=CC=C1)NC2=C(C=C(C=C2)S(=O)(=O)NC(=O)C3=CC=C(C=C3)N4CCC(CC4)[C@H](C5=CC=CC=C5C6=CC=C(C=C6)Cl)O)S(=O)(=O)C(F)(F)F)CCO [AZD4320] (first compound max 1 µM, 7x7, partner max 1 µM)	-0.0568	–	–	–	0.451	0.272	–	–	0.345	0.994	–	0.939	0.346	–	–	0.366	0.666	–	–	–
Cc1c2c(nn1C)CSCc1cc(n(C)n1)CSc1cc(c3ccccc3c1)OCCCc1c(C(=O)O)n(C)c3c-2c(Cl)ccc13 [AZD5991] + C=CCn1c(=O)c2cnc(Nc3ccc(N4CCN(C)CC4)cc3)nc2n1-c1cccc(C(C)(C)O)n1 [AZD1775] (first compound max 1 µM, partner max 1 µM)	0.0201	0.465	0.915	0.402	1	0.949	0.466	0.815	0.883	1	0.657	0.788	0.809	0.634	0.298	0.998	0.591	–	0.921	0.188
Cc1c2c(nn1C)CSCc1cc(n(C)n1)CSc1cc(c3ccccc3c1)OCCCc1c(C(=O)O)n(C)c3c-2c(Cl)ccc13 [AZD5991] + C[C@@H]1COCCN1C2=NC(=NC(=C2)C3(CC3)[S@](=N)(=O)C)C4=C5C=CNC5=NC=C4 [AZD6738] (first compound max 1 µM, 7x7, partner max 10 µM)	-0.0412	0.526	0.932	0.443	1	0.829	0.822	0.841	0.737	1	0.815	0.739	0.334	0.774	0.294	1	0.747	–	0.892	0.399
CS(=O)(=O)CCNCc1ccc(-c2ccc3ncnc(Nc4ccc(OCc5cccc(F)c5)c(Cl)c4)c3c2)o1 [Lapatinib] + Cn1cnc2c(F)c(Nc3ccc(Br)cc3Cl)c(C(=O)NOCCO)cc21 [Selumetinib] (first compound max 10 µM, 7x7, partner max 10 µM)	–	0.585	0.843	0.576	–	–	0.811	0.611	–	–	0.437	–	–	0.365	0.35	–	–	0.257	0.542	0.204
CS(=O)(=O)CCNCc1ccc(-c2ccc3ncnc(Nc4ccc(OCc5cccc(F)c5)c(Cl)c4)c3c2)o1 [Lapatinib] + NC1(c2ccc(-c3nc4ccn5c(=O)[nH]nc5c4cc3-c3ccccc3)cc2)CCC1 [MK-2206] (first compound max 10 µM, 7x7, partner max 10 µM)	0.0488	0.7	0.928	0.611	–	–	0.978	0.653	–	–	0.893	–	–	0.756	0.894	–	–	0.408	0.913	0.904
CCc1c2c(nc3ccc(O)cc13)-c1cc3c(c(=O)n1C2)COC(=O)[C@]3(O)CC [SN-38] + O=C(c1cc(Cc2n[nH]c(=O)c3ccccc23)ccc1F)N1CCN(C(=O)C2CC2)CC1 [Olaparib] (first compound max 0.3 µM, 7x7, partner max 10 µM)	0.036	0.4	0.835	0.604	0.255	0.548	1	0.932	–	1	0.491	–	–	0.987	0.503	0.467	0.624	0.281	0.949	0.858
